{
  "source": "patent US20060198906A1",
  "about": "“Compositions and Method to Increase Serum Levels of HDL cholesterol and Lower the Risk of Cardiovascular Disease” (SAMI LABS LIMITED, priority 2005, published 2006)",
  "origin": "cited, not measured here",
  "conditions": "dose range of 20-80 mg/day, clinical studies",
  "data": [
    {"compound": "CC(C)c1nc(N(C)S(C)(=O)=O)nc(-c2ccc(F)cc2)c1/C=C/[C@@H](O)C[C@@H](O)CC(=O)O", "note": "[Rosuvastatin]", "values": [
      {"measurement": "reduction of LDL levels", "result": "up to 65%"}
    ]}
  ]
}
